# “Also recorded” adds a separate entry of the source. Read-outs that look alike come from different tables or passages of the source.
# Experiments:
# [1] = target: T1, β2-adrenergic receptor (β2AR) (Homo sapiens, UniProt P07550); experiment: BRET in membrane preparations from HEK293T cells co-expressing β2AR-Rluc and GFP10-Gβ1 or GFP10-Gγ2; assay type: biochemical; settings: membranes
# T1 construct: expressed in transfected cells; host or cells: HEK293T (transient, calcium phosphate)
# Protocol: Treatments: Iso, 10 μM; Feno, 10 μM; ICI, 100 μM; GTPγS, 200 μM. […] Rluc-tagged receptors and G protein constructs were transiently co-transfected in HEK293T cells. […] Forty-eight hours post-transfection, cells were washed twice with PBS, detached with PBS-5 mM EDTA and resuspended in PBS-0.1% glucose at RT. […] DeepBlueCTM coelenterazine (PerkinElmer) was added at a final concentration of 5 μM, and readings (except for the kinetic studies; see below) were collected using a modified top-count apparatus (TopCount.NXTM, Packard Bioscience) that allows the sequential integration of the signals detected in the 370-450 nm and 500-530 nm windows using filters with the appropriate band pass (Chroma). […] The net BRET values were obtained by subtracting the BRET background signal detected when the Rluc-tagged construct was expressed alone from BRET signals detected in cells coexpressing both Rluc- and GFP10-tagged constructs. […] The expression level of each protein was determined by direct measurement of total fluorescence and luminescence on aliquots of the transfected cells. […] To avoid variations in the BRET signal that could result from fluctuations in the relative expression levels of the energy donor and acceptor, transfection conditions were designed so as to maintain a constant GFP10/Rluc expression ratio in each experimental set.
# [2] = target: T2, human α2A-adrenergic receptor (α2AAR) (Homo sapiens, UniProt P08913); experiment: BRET between α2AAR and tagged G protein subunits (Gβ1, Gγ2, Gαi1-91Rluc, Gαi1-122Rluc) in living HEK293T cells; assay type: cell-based; settings: for effect of pre-treatment on agonist-promoted changes in BRET between α2AAR and G protein subunits: pertussis toxin 16 h at 37° C., UK14,304, FIG. 21
# T2 construct: expressed in transfected cells; host or cells: HEK293T (transient)
# T2 sequence (P08913 1-465): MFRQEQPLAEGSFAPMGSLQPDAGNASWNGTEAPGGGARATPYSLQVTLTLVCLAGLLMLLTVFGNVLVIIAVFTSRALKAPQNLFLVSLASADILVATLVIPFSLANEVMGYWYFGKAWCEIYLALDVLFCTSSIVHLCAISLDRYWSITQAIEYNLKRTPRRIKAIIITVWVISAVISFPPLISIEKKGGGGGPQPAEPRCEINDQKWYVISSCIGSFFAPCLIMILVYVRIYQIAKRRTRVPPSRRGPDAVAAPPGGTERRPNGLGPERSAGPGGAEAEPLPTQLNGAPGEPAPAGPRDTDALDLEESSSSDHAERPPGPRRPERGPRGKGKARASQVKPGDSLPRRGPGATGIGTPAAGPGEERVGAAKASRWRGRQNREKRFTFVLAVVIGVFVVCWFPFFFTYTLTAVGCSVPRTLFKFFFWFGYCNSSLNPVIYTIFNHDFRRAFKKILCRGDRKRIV
# Protocol: (§1) Rluc-tagged receptors and G protein constructs were transiently co-transfected in HEK293T cells. […] For the experiment using α2AAR-Rluc (FIG. 4f), the G protein heterotrimer was complimented with the most specific Gαi2. Forty-eight hours post-transfection, cells were washed twice with PBS, detached with PBS-5 mM EDTA and resuspended in PBS-0.1% glucose at RT. Cells (50 μg of proteins per well) were then distributed in a 96-well microplate (white Optiplate, PerkinElmer) and incubated in the presence or absence of different ligands for 1 min except in the case of the kinetic studies where the times are indicated. DeepBlueC™ coelenterazine (PerkinElmer) was added at a final concentration of 5 μM, and readings (except for the kinetic studies; see below) were collected using a modified top-count apparatus (TopCount.NX™, Packard Bioscience) that allows the sequential integration of the signals detected in the 370-450 nm and 500-530 nm windows using filters with the appropriate band pass (Chroma). The BRET signal was determined by calculating the ratio of the light emitted by GFP10 (500-530 nm) over the light emitted by the Rluc (370-450 nm). The net BRET values were obtained by subtracting the BRET background signal detected when the Rluc-tagged construct was expressed alone from BRET signals detected in cells coexpressing both Rluc- and GFP10-tagged constructs. […] The expression level of each protein was determined by direct measurement of total fluorescence and luminescence on aliquots of the transfected cells. The GFP10 total fluorescence was measured using a FluoroCount (PerkinElmer) with an excitation filter at 400 nm, an emission at 510 nm, and the following parameters: gain 1; PMT 1100 V; time 1.0 s. After fluorescence measurement, the same cells were incubated for 8 min with Coelenterazine h (Molecular Probes) at a final concentration of 5 μM and the total luminescence of cells was measured using a LumiCount (PerkinElmer Life Sciences) with the following parameters: gain 1; PMT 900 V; time 0.5 s. […] To avoid variations in the BRET signal that could result from fluctuations in the relative expression levels of the energy donor and acceptor, transfection conditions were designed so as to maintain a constant GFP10/Rluc expression ratio in each experimental set.
# For kinetic analysis of receptor/Gαβγ interactions, DeepBlueC™ or Coelenterazine h luciferase substrate was added prior to the injection of the different ligands using the Mithras LB 940 apparatus (Berthold) and MicroWin2000 software. Readings were then collected at 0.05 or 0.1 sec intervals. Injection of the different ligands was included with in the kinetic program to allow a baseline recording followed by real-time recording of the BRET changes. The BRET signals were determined for each time by calculating the ratio of the light emitted by GFP over that emitted by the Rluc. To determine the half-time (t½) of Iso-induced BRET, data were represented as the difference between the Iso-induced BRET signals and the average of basal BRET signal (net agonist-promoted BRET signal). Curves were fitted using a non-linear regression and one phase exponential association fit equation (GraphPad Prism).
# For agonist stimulations longer than 1 minute, cells were first treated with the ligand (agonist, antagonist, inverse agonist) and DeepBlueC™ coelenterazine added immediately before BRET readings in the modified TopCount.NXT™ apparatus. For these experiments, readings were taken directly in 96 well plates 72 hours post-transfection without detaching the cells.
# [3] = target: T3, α2AAR (Homo sapiens, UniProt P08913); experiment: BRET between Gαi1-Rluc and GFP10-Gγ2 in the presence of α2AAR (Gα/Gβγ interaction); assay type: cell-based
# T3 construct: expressed in transfected cells; host or cells: HEK293T
# T3 sequence (P08913 1-465): T2 sequence (P08913 1-465)
# Protocol: as §1
# [4] = target: T1, β2-adrenergic receptor (β2AR); experiment: BRET2 receptor/G protein interaction assay: β2AR-Rluc (or β2AR-GFP10) with tagged G protein subunits in living HEK293T cells; assay type: cell-based
# Protocol: Rluc-tagged receptors and G protein constructs were transiently co-transfected in HEK293T cells. […] For the experiment using α2AAR-Rluc (FIG. 4f), the G protein heterotrimer was complimented with the most specific Gαi2. Forty-eight hours post-transfection, cells were washed twice with PBS, detached with PBS-5 mM EDTA and resuspended in PBS-0.1% glucose at RT. Cells (50 μg of proteins per well) were then distributed in a 96-well microplate (white Optiplate, PerkinElmer) and incubated in the presence or absence of different ligands for 1 min except in the case of the kinetic studies where the times are indicated. DeepBlueC™ coelenterazine (PerkinElmer) was added at a final concentration of 5 μM, and readings (except for the kinetic studies; see below) were collected using a modified top-count apparatus (TopCount.NX™, Packard Bioscience) that allows the sequential integration of the signals detected in the 370-450 nm and 500-530 nm windows using filters with the appropriate band pass (Chroma). The BRET signal was determined by calculating the ratio of the light emitted by GFP10 (500-530 nm) over the light emitted by the Rluc (370-450 nm). The net BRET values were obtained by subtracting the BRET background signal detected when the Rluc-tagged construct was expressed alone from BRET signals detected in cells coexpressing both Rluc- and GFP10-tagged constructs. […]
# [5] = untagged α2AAR, ligands 10 μM, FIG. 27A, 27C
compound,measurement,setting,value
"Nc1nc2c(ncn2[C@@H]2O[C@H](COP(=O)(O)OP(=O)(O)OP(=O)(O)O)[C@@H](O)[C@H]2O)c(=O)[nH]1 [GTP, Guanosine triphosphate]","effect of GTP on basal and agonist-stimulated BRET, β2AR-Rluc / GFP-Gβ1 or GFP-Gγ2","[1]; high GTP concentrations, 90 min at 25° C., Iso 10 μM, FIG. 9",GTP sensitive
Nc1nc2c(ncn2[C@@H]2O[C@H](COP(=O)(O)OP(=O)(O)OP(O)(O)=S)[C@@H](O)[C@H]2O)c(=O)[nH]1 [GTPγS],"effect on agonist-promoted BRET signal, β2AR-Rluc / GFP10-Gβ1 or GFP10-Gγ2","[1]; GTPγS 200 μM, 90 min at 25° C. pretreatment, Iso 10 μM",attenuated the agonist-promoted signal
same,"effect on basal BRET in the absence of agonist, β2AR-Rluc / GFP10-Gβ1 or GFP10-Gγ2","[1]; GTPγS 200 μM, 90 min at 25° C. pretreatment",reduced the basal BRET
COC1(C2=NCCN2)COc2ccccc2O1 (stereo not shown) [RX821002],"effect of pretreatment on UK14,304-promoted BRET increase, α2AAR / G protein pairs",[2]; FIG. 25,"completely blocked the UK14,304-promoted BRET increase"
same,"effect of preincubation on agonist-stimulated BRET response, Gαi1-Rluc / α2AAR-GFP10","[2]; agonist UK14304, FIG. 3E",completely blocked the agonist-stimulated response
same,"modulation of BRET, Gαi1-Rluc / α2AAR-GFP10","[2]; ligands 10 μM, FIG. 3E",unable to modulate the BRET signal
same,"change in BRET2, Gαi1-91Rluc / α2AAR-GFP2","[2]; ligands 10 μM, FIG. 20, 25",little or no effect
same,"change in BRET2, Gαi1-122Rluc / α2AAR-GFP2","[2]; ligands 10 μM, FIG. 20, 25",promoted a decrease in the BRET
same,"change in BRET2, α2AAR-Rluc / GFP10-Gβ1","[2]; ligands 10 μM, FIG. 20, 25",little or no effect
same,"change in BRET2, α2AAR-Rluc / GFP10-Gγ2","[2]; ligands 10 μM, FIG. 20, 25",little or no effect
same,"change in BRET, Gαi1-91Rluc / GFP10-Gγ2",[3]; [5],no effect on the BRET signal
same,"change in BRET, Gαi1-122Rluc / GFP10-Gγ2",[3]; [5],significant decrease in the BRET signal
"Brc1c(NC2=NCCN2)ccc2nccnc12 [UK14,304]","change in BRET1, Gαi1-91Rluc / α2AAR-Venus, measured concomitantly with BRET2 in the same cells",[2],increase in the BRET
same,"change in BRET2, Gαi1-91Rluc / α2AAR-GFP2",[2],significantly increased the BRET
same,"change in BRET2, α2AAR-Rluc / GFP10-Gβ1",[2],significantly increased the BRET
same,"change in BRET2, α2AAR-Rluc / GFP10-Gγ2",[2],significantly increased the BRET
same,"loss (decrease) of BRET signal, α2AAR-Rluc / GFP10-Gγ2",[2],24%
same,"real-time BRET1 change, Gαi1-91Rluc / α2AAR-Venus",[2],rapid increases in the BRET
same,"real-time BRET1 change, Rluc-Gγ2 / α2AAR-Venus",[2],rapid increases in the BRET
same,"real-time BRET1 change, α2AAR-Venus / Gαi1-122Rluc",[2],rapid decrease in BRET^1
same,"time BRET levels reached following agonist stimulation remained constant, α2AAR-Venus pairs",[2],at least 12 seconds
same,"change in BRET2, Gαi1-91Rluc / GFP10-Gγ2, measured concomitantly with BRET1 in the same cells",[3],decrease in BRET^2
same,"change in BRET, Gαi1-91Rluc / GFP10-Gγ2",[3],promoted a reduction of BRET; also recorded: decreased the BRET
same,"change in BRET, Gαi1-122Rluc / GFP10-Gγ2",[3],promoted a reduction of BRET; also recorded: decreased the BRET
"Clc1cccc(Cl)c1N=C1NCCN1 [clonidine, Clonidine]","change in BRET2, Gαi1-91Rluc / α2AAR-GFP2",[2],partial increase in BRET
same,"change in BRET2, α2AAR-Rluc / GFP10-Gβ1",[2],partial increase in BRET
same,"change in BRET2, α2AAR-Rluc / GFP10-Gγ2",[2],partial increase in BRET
same,"modulation of BRET, Gαi1-Rluc / α2AAR-GFP10",[2],induced only a fraction of the full agonist modulation UK14304
same,"change in BRET, Gαi1-91Rluc / GFP10-Gγ2",[3],decreased the BRET
same,"change in BRET, Gαi1-122Rluc / GFP10-Gγ2",[3],decreased the BRET
"Cc1cccc([C@H](C)c2cnc[nH]2)c1C [dexmedetomidine, Dexmedetomidine]","change in BRET2, Gαi1-91Rluc / α2AAR-GFP2",[2],partial increase in BRET
same,"change in BRET2, Gαi1-122Rluc / α2AAR-GFP2",[2],larger responses
same,"change in BRET2, α2AAR-Rluc / GFP10-Gβ1",[2],partial increase in BRET
same,"change in BRET2, α2AAR-Rluc / GFP10-Gγ2",[2],partial increase in BRET
same,"modulation of BRET, Gαi1-Rluc / α2AAR-GFP10",[2],induced only a fraction of the full agonist modulation UK14304
same,"change in BRET, Gαi1-91Rluc / GFP10-Gγ2",[3]; [5],decreased the BRET
same,"change in BRET, Gαi1-122Rluc / GFP10-Gγ2",[3]; [5],decreased the BRET
CC(Cc1ccc(O)cc1)NCC(O)c1cc(O)cc(O)c1 (stereo not shown) [fenoterol],"ligand-promoted BRET response, β2AR-Rluc / GFP10-Gβ1 or GFP10-Gγ2, compared with isoproterenol","[4]; Feno 10 μM, Iso 10 μM, FIG. 3C",promoted only a fraction of the response evoked by the full agonist isoproterenol
"COC(=O)[C@@H]1[C@H]2C[C@H]3c4[nH]c5ccccc5c4CCN3C[C@@H]2CC[C@@H]1O [yohimbine, Yohimbine]","change in BRET2, Gαi1-91Rluc / α2AAR-GFP2",[2],little or no effect
same,"change in BRET2, Gαi1-122Rluc / α2AAR-GFP2",[2],promoted a decrease in the BRET
same,"change in BRET2, α2AAR-Rluc / GFP10-Gβ1",[2],little or no effect
same,"change in BRET2, α2AAR-Rluc / GFP10-Gγ2",[2],little or no effect
same,"modulation of BRET, Gαi1-Rluc / α2AAR-GFP10",[2],unable to modulate the BRET signal
same,"change in BRET, Gαi1-91Rluc / GFP10-Gγ2",[3]; [5],no effect on the BRET signal
same,"change in BRET, Gαi1-122Rluc / GFP10-Gγ2",[3]; [5],significant decrease in the BRET signal
AVP: Vasopressin-selective agonist (V2R),"modulation of BRET signal, β2AR-Rluc / GFP-Gγ2 or GFP-Gβ1, in cells also expressing Myc-V2R","[4]; 10 μM AVP, specificity control, FIG. 7",unable to modulate BRET signal
pertussis toxin,effect of pre-treatment on agonist-promoted changes in BRET between α2AAR and G protein subunits,[2],blocked
same,effect of pre-treatment on agonist-promoted changes in BRET between α2AAR and G protein subunits,[2]; listed as PTX,greatly blunted agonist-promoted BRET changes
same,"effect of treatment on UK14,304-promoted BRET changes, Gαi1-91Rluc or Gαi1-122Rluc / GFP10-Gγ2","[3]; pertussis toxin 16 h at 37° C., FIG. 21",abolished

# Reference: patent US9029097B2, “Biosensors for monitoring receptor-mediated G-protein activation” (Universite de Montreal, priority 2005, dated 2015)
